# Patent US5599902A, “Cancer inhibitory peptides” (Arizona Board of Regents acting on behalf of Arizona State …, priority 1994, dated 1997)
# Tests used:
# [1] = system: P388 Lymphocytic Leukemia; test: Murine in vivo system: P388 Lymphocytic Leukemia, T/C
# Text: (§1) The synthesis of potentially useful peptides presents one of the most essential and promising approaches to new types of anticancer and immunosuppressant drugs. The Dolastatins, an unprecedented series of linear and cyclic antineoplastic and/or cytostatic peptides isolated from Indian Ocean sea hare Dolabella auricularia represent excellent leads for synthetic modification. The very productive sea hare Dolabella auricularia has produced a number of structurally distinct peptides with excellent antineoplastic activity. Presently dolastatin 10, a linear pentapeptide represents the most important member and is a potentially useful antineoplastic agent. […] Recently the total synthesis and absolute configuration of this structurally unique and biologically active peptide was reported.
# (§2) Experimental Anticancer Activity of Dolastatin 10 in Murine in vivo Systems, T/C (μg/kg)
# [2] = system: L1210 Lymphocytic Leukemia; test: Murine in vivo system: L1210 Lymphocytic Leukemia, T/C
# Text: as §1, §2
# B16 Melanoma = test: Murine in vivo system: B16 Melanoma, T/C
# Text: as §1, §2
# M5076 Ovary Sarcoma = test: Murine in vivo system: M5076 Ovary Sarcoma, T/C
# Text: as §1, §2
# [3] = system: LOX Human Melanoma Xenograft; test: LOX Human Melanoma Xenograft to Nude Mouse, T/C; assay type: in vivo
# Text: as §2
# Human Mammary Xenograft = Human Mammary Xenograft Nude Mouse, T/C; assay type: in vivo
# Text: as §1, §2
# [4] = system: OVCAR-3 Human Ovary Xenograft; test: OVCAR-3 Human Ovary Xenograft Nude Mouse, T/C; assay type: in vivo; settings: OVCAR-3 xenograft, dose 40 μg/kg
# Text: as §1, §2
# [5] = system: MX-1 Human Mammary Xenograft; test: MX-1 Human Mammary Xenograft (Tumor Regression), T/C; assay type: in vivo, Murine
# Text: as §1, §2
# [6] = system: L1210 murine leukemia cells; test: Activity against L1210 murine leukemia cells (IC50); assay type: cell-based
# Text: A molecule (22c) was designed based on the conformational similarities with (6R)-isodolastatin 10 (See FIGS. 1a and 1b). The molecule was then synthesized by the procedure outlined in this application.
# OVCAR-3 = test: Human cancer cell line growth inhibition, Ovarian OVCAR-3; assay type: cell-based; settings: Ovarian OVCAR-3, 48 hours
# Method: (§3) Cancer Inst. […] Cancer Inst. Reports, Vol 81, No. 14, Page 1088, Jul.
# (§4) The only difference is historical usage.
# (§5) Percent Growths are calculated for each dose.
# (§6) This is the "baseline count" or "Tzero reading".
# SF-2X5 = test: Human cancer cell line growth inhibition, CNS SF-2X5; assay type: cell-based; settings: CNS SF-2X5, 48 hours
# Method: as §3, §4, §5, §6
# A4X8 = test: Human cancer cell line growth inhibition, Renal A4X8; assay type: cell-based; settings: Renal A4X8, 48 hours
# Method: as §3, §4, §5, §6
# NCI-H460 = test: Human cancer cell line growth inhibition, Lung-NSC NCI-H460; assay type: cell-based; settings: Lung-NSC NCI-H460, 48 hours
# Method: as §3, §4, §5, §6
# KM20L2 = test: Human cancer cell line growth inhibition, Colon KM20L2; assay type: cell-based; settings: Colon KM20L2, 48 hours
# Method: as §3, §4, §5, §6
# SK-MEL-5 = test: Human cancer cell line growth inhibition, Melanoma SK-MEL-5; assay type: cell-based; settings: Melanoma SK-MEL-5, 48 hours
# Method: as §3, §4, §5, §6
# [7] = system: PS-388 Leukemia cell line; test: PS-388 mouse leukemia cell line growth inhibition; assay type: cell-based; settings: Mouse Leukemia PS-388, 48 hours
# Method: as §4, §5, §6
# [8] = LOX in separate experiments, dose 9.0 μg/kg
# [9] = LOX in separate experiments, dose 26 μg/kg
# [10] = LOX in separate experiments, dose 43 μg/kg
compound,measurement,setting,value
CC[C@H](C)[C@@H]([C@@H](CC(=O)N1CCC[C@H]1[C@H](OC)[C@@H](C)C(=O)N[C@@H](Cc1ccccc1)c1nccs1)OC)N(C)C(=O)[C@@H](NC(=O)[C@H](C(C)C)N(C)C)C(C)C [Dolastatin 10],T/C,"[1]; P388, dose 1.63 μg/kg",137
same,T/C,"[1]; P388, dose 3.25 μg/kg",146
same,cures,"[1]; P388, dose 3.25 μg/kg",17%
same,T/C,"[1]; P388, dose 6.5 μg/kg",155
same,cures,"[1]; P388, dose 6.5 μg/kg",17%
same,T/C,"[1]; P388, dose 13.0 μg/kg",toxic
same,T/C,"[2]; L1210, dose 1.63 μg/kg",120
same,T/C,"[2]; L1210, dose 3.25 μg/kg",139
same,T/C,"[2]; L1210, dose 6.5 μg/kg",135
same,T/C,"[2]; L1210, dose 13 μg/kg",152
same,T/C,"B16 Melanoma; B16, dose 1.44 μg/kg",142
same,T/C,"B16 Melanoma; B16, dose 3.4 μg/kg",171
same,T/C,"B16 Melanoma; B16, dose 4.0 μg/kg",205
same,T/C,"B16 Melanoma; B16, dose 6.67 μg/kg",182
same,T/C,"B16 Melanoma; B16, dose 11.11 μg/kg",238
same,cures,"B16 Melanoma; B16, dose 11.11 μg/kg",40%
same,T/C,"M5076 Ovary Sarcoma; M5076, dose 3.25 μg/kg",151
same,T/C,"M5076 Ovary Sarcoma; M5076, dose 6.5 μg/kg",142
same,T/C,"M5076 Ovary Sarcoma; M5076, dose 13 μg/kg",166
same,T/C,"M5076 Ovary Sarcoma; M5076, dose 26 μg/kg",toxic
same,T/C,[3]; [8],138
same,cures,[3]; [8],17%
same,T/C,"[3]; LOX in separate experiments, dose 15 μg/kg",192
same,T/C,[3]; [9],181
same,cures,[3]; [9],33%
same,T/C,[3]; [10],340
same,cures,[3]; [10],50%
same,T/C,"[3]; LOX, dose 3.25 μg/kg",170
same,cures,"[3]; LOX, dose 3.25 μg/kg",17%
same,T/C,"[3]; LOX, dose 6.5 μg/kg",206
same,cures,"[3]; LOX, dose 6.5 μg/kg",33%
same,T/C,"[3]; LOX, dose 13 μg/kg",301
same,cures,"[3]; LOX, dose 13 μg/kg",50%
same,T/C,"[3]; LOX, dose 26 μg/kg",301
same,cures,"[3]; LOX, dose 26 μg/kg",67%
same,T/C,"[3]; LOX, dose 52 μg/kg",toxic
same,T/C,Human Mammary Xenograft; dose 6.25 μg/kg,178
same,T/C,Human Mammary Xenograft; dose 13 μg/kg,137
same,T/C,Human Mammary Xenograft; dose 26 μg/kg,Toxic
same,T/C,[4],300
same,T/C (Tumor Regression),"[5]; MX-1, dose 6.25 μg/kg",69
same,T/C (Tumor Regression),"[5]; MX-1, dose 13 μg/kg",61
same,T/C (Tumor Regression),"[5]; MX-1, dose 26 μg/kg",50
same,T/C (Tumor Regression),"[5]; MX-1, dose 52 μg/kg",14
"CC[C@H](C)[C@@H]([C@@H](CC(=O)N1CCC[C@H]1CCC(=O)N[C@@H](CCSC)C(=O)OC)OC)N(C)C(=O)[C@@H](NC(=O)[C@H](C(C)C)N(C)C)C(C)C [22c, Dov-val-dil-desmethoxy-desmethyl-dolaproine-methionine methyl ester]",IC50,[6],4 µM
Dov-Val-Dil-Dap methyl ester [compound 21],GI-50,OVCAR-3,0.0035 µg/mL
same,LC-50,OVCAR-3,> 1 µg/mL
same,TGI,OVCAR-3,0.026 µg/mL
same,GI-50,SF-2X5,0.0038 µg/mL
same,LC-50,SF-2X5,> 1 µg/mL
same,TGI,SF-2X5,> 0.035 µg/mL
same,GI-50,A4X8,0.02 µg/mL
same,LC-50,A4X8,> 1 µg/mL
same,TGI,A4X8,> 1 µg/mL
same,GI-50,NCI-H460,0.0022 µg/mL
same,LC-50,NCI-H460,> 1 µg/mL
same,TGI,NCI-H460,0.021 µg/mL
same,GI-50,KM20L2,0.021 µg/mL
same,LC-50,KM20L2,> 1 µg/mL
same,TGI,KM20L2,0.23 µg/mL
same,GI-50,SK-MEL-5,0.0087 µg/mL
same,LC-50,SK-MEL-5,> 1 µg/mL
same,TGI,SK-MEL-5,> 1 µg/mL
same,ED-50,[7],0.0297 µg/mL
Z-Val-Dil-Dap-Phenethylamine [compound 18],GI-50,OVCAR-3,0.051 µg/mL
same,LC-50,OVCAR-3,0.99 µg/mL
same,TGI,OVCAR-3,0.24 µg/mL
same,GI-50,SF-2X5,0.14 µg/mL
same,LC-50,SF-2X5,> 1 µg/mL
same,TGI,SF-2X5,0.43 µg/mL
same,GI-50,A4X8,0.16 µg/mL
same,LC-50,A4X8,> 1 µg/mL
same,TGI,A4X8,0.52 µg/mL
same,GI-50,NCI-H460,0.21 µg/mL
same,LC-50,NCI-H460,> 1 µg/mL
same,TGI,NCI-H460,0.66 µg/mL
same,GI-50,KM20L2,0.24 µg/mL
same,LC-50,KM20L2,> 1 µg/mL
same,TGI,KM20L2,0.67 µg/mL
same,GI-50,SK-MEL-5,0.29 µg/mL
same,LC-50,SK-MEL-5,> 1 µg/mL
same,TGI,SK-MEL-5,> 1 µg/mL
same,ED-50,[7],> 1 µg/mL
